Experimental data as given in patent US20240132431A1, “METHOD FOR ALKYLATING ACIDIC FUNCTIONAL GROUP” (Chugai Seiyaku Kabushiki Kaisha, priority 2021, published 2024).

Target: T1, Bcl-2 protein (Recombinant Human Bcl-2 Protein) (Homo sapiens, UniProt P10415)
T1 construct: purchased Novus NBP2-34889
Assay: Binding evaluation of mixture library compounds to Bcl-2 using AS-MS (affinity selection mass spectrometry)
Settings: ASMS Ratio(%)=(A−C)/B×100; for ASMS ratio (%) n = 1: replicate n = 1; for ASMS ratio (%) n = 2: replicate n = 2
Experimental: For one well of MICROPLATE, 96-well, PP, V-BOTTOM (Greiner bio-one, 651201), DMSO solutions of 12 mixtures (prepared to approximately 0.58 mM based on calculations from the average molecular weight of each mixture), in each of which 100 compounds are mixed, were each dispensed, and dispensed into a total of 12 wells, where the 12 mixtures are mixAI-B4J-01, mixAI-B1M-01, mixAI-B1K-01, mixAI-B10-01, mixAI-B1A-01, mixAI-B3A-01, mixAI-B21-01, mixAI-B2L-01, mixAI-B2N-01, mixAI-B2A-01, mixAI-B2Q-01, and mixAI-B2R-01 listed in [Table AI-03-B4J-01], [Table AI-03-B1M-01], [Table AI-03-B1K-01], [Table AI-03-B10-01], [Table AI-03-B1A-01], [Table AI-03-B3A-01], [Table AI-03-B2I-01], [Table AI-03-B2L-01], [Table AI-03-B2N-01], [Table AI-03-B2A-01], [Table AI-03-B2Q-01], and [AI-03-B2R-01] shown in Example 6. Using the LABCYTE ECHO® 555 Acoustic Dispensing System (BECKMAN COULTER), 70 nL was collected from each of the 12 wells into one arbitrary well to prepare a sample solution with 1200 compounds in the mixed state (the presence of 1152 compounds had already been identified when prepared in Example 6-5-3). (In the present specification, the mixture collected in this one well is referred to as one library.) Furthermore, a Bcl-2 protein (Novus, NBP2-34889, Recombinant Human Bcl-2 Protein, Lot E60145051) (19.2 μL) that had been prepared in advance to be 20.9 μM using a Tris-HCl buffer (25 mM Tris-HCl pH 7.4, 150 mM NaCl, 0.025% Tween-20, 1 mM DTT) was added to the well in which 1200 compounds (the presence of 1152 compounds had already been identified when prepared in Example 6-5-3) were dispensed (final compound concentration […], final Bcl-2 concentration 20 μM), and the mixture was incubated in the dark at 23° C. for 1 hour. Next, using the 96-well MacroSpin column, P-2 Material (Harvard, 74-5655) that had been swollen, conditioning of the 96-well MacroSpin column was performed three times by centrifugation with 200 μL of an assay buffer (25 mM Tris-HCl pH 7.4, 150 mM NaCl, 0.025% Tween-20, 1 mM DTT), 2000 XG, 4° C., 2 min. Subsequently, 20 μL of the sample after incubation was added to the 96-well MacroSpin column, P-2 Material, that had been conditioned, and SEC treatment was performed by centrifugation at 2000×G for 2 minutes. To the liquid passed from the SEC, 32 μL of a 1:1 mixed solution of acetonitrile and methanol (LC/MS grade, Fujifilm Wako Pure Chemical Corporation) was added, the mixture was centrifuged at 1800×G, 4° C., 5 min, and the supernatant was used as analysis sample ASMS (A), while a sample that had been prepared by the same operations at 1200 compounds/well and to which only the Tris-HCl buffer had been added without the Bcl-2 protein was incubated under the same conditions, no 96-well MacroSpin column treatment was performed, the same organic solvent was added, and the supernatant solution obtained by centrifugation was used as STD (B). Next, a sample that had been prepared by the same operations at 1200 compounds/well and to which only the Tris-HCl buffer had been added without the Bcl-2 protein was incubated under the same conditions, the same 96-well MacroSpin column treatment was performed, the same organic solvent was added, and the supernatant solution obtained by centrifugation was used as BK (C), and measured by reversed phase LC/MS.
Then, analysis of the 1200 compounds was carried out for samples A, B, and C with TraceFinder 5.1 (Thermo Fisher Scientific) and CHANCE Software (in-house), and the ASMS Ratio (%) was calculated according to the following calculation formula.
Calculation formula: ASMS Ratio(%)=(A−C)/B×100

[1] = AS-MS, mixture of 1200 compounds, Bcl-2
[2] = AS-MS on the mixture of 1200 library compounds

T1 sequence (P10415 whole entry): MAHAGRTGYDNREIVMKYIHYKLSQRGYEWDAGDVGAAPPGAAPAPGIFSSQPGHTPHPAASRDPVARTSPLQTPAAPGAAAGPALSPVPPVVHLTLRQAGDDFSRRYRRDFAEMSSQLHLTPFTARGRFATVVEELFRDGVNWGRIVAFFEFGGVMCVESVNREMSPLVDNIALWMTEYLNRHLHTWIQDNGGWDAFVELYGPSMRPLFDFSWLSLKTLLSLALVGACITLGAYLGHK

Substance: 4-[4-[1-[4-(3-Ethoxyphenyl)-2-fluorophenyl]ethyl]piperazin-1-yl]-N-propylbenzamide [B1M005-01]
- ASMS ratio (%) n = 1 [1]: 0.0%
- ASMS ratio (%) n = 2 [1]: 1.4%

Substance: 4-[4-[1-[4-(3-Ethoxyphenyl)phenyl]ethyl]piperazin-1-yl]-N-propylbenzamide [B1M003-01]
- ASMS ratio (%) n = 1 [1]: −1.9%
- ASMS ratio (%) n = 2 [1]: 2.0%

Substance: 4-[4-[1-[4-(5-Ethoxypyridin-3-yl)-2-fluorophenyl]ethyl]piperazin-1-yl]-N-propylbenzamide [B1M006-01]
- ASMS ratio (%) n = 1 [1]: 0.0%
- ASMS ratio (%) n = 2 [1]: 0.0%

Substance: 4-[4-[1-[4-(5-Ethoxypyridin-3-yl)phenyl]ethyl]piperazin-1-yl]-N-propylbenzamide [B1M004-01]
- ASMS ratio (%) n = 1 [1]: 0.0%
- ASMS ratio (%) n = 2 [1]: 0.0%

Substance: 4-[4-[2-[2-(3-Ethoxyphenyl)ethynyl]benzoyl]piperazin-1-yl]-N-propylbenzamide [B1M097-01]
- ASMS ratio (%) n = 1 [2]: 1.1%
- ASMS ratio (%) n = 2 [2]: 0.3%

Substance: 4-[4-[2-[2-(5-Ethoxypyridin-3-yl)ethynyl]benzoyl]piperazin-1-yl]-N-propylbenzamide [B1M098-01]
- ASMS ratio (%) n = 1 [2]: 0.9%
- ASMS ratio (%) n = 2 [2]: 0.3%

Substance: 4-[4-[3-(3-Ethoxyphenyl)-5-(trifluoromethyl)benzoyl]piperazin-1-yl]-N-propylbenzamide [B1M092-01]
- ASMS ratio (%) n = 2 [2]: 0.0%

Substance: 4-[4-[3-(5-Ethoxypyridin-3-yl)-5-(trifluoromethyl)benzoyl]piperazin-1-yl]-N-propylbenzamide [B1M008-01]
- ASMS ratio (%) n = 2 [1]: 0.0%

Substance: 4-[4-[3-[2-(3-Ethoxyphenyl)ethynyl]-5-(trifluoromethyl)benzoyl]piperazin-1-yl]-N-propylbenzamide [B1M014-01]
- ASMS ratio (%) n = 1 [1]: 4.1%
- ASMS ratio (%) n = 2 [1]: 0.4%

Substance: 4-[4-[3-[2-(3-Ethoxyphenyl)phenyl]propanoyl]piperazin-1-yl]-N-propylbenzamide [B1M068-01]
- ASMS ratio (%) n = 1 [1]: 1.1%
- ASMS ratio (%) n = 2 [1]: 0.0%

Substance: 4-[4-[3-[2-(5-Ethoxypyridin-3-yl)ethynyl]-5-(trifluoromethyl)benzoyl]piperazin-1-yl]-N-propylbenzamide [B1M019-01]
- ASMS ratio (%) n = 1 [1]: 1.5%
- ASMS ratio (%) n = 2 [1]: 0.0%

Substance: 4-[4-[3-[2-(5-Ethoxypyridin-3-yl)phenyl]propanoyl]piperazin-1-yl]-N-propylbenzamide [B1M078-01]
- ASMS ratio (%) n = 1 [1]: 0.0%
- ASMS ratio (%) n = 2 [1]: 0.0%

Substance: 4-[4-[3-[4-(3-Ethoxyphenyl)pyrazol-1-yl]-5-(trifluoromethyl)benzoyl]piperazin-1-yl]-N-propylbenzamide [B1M025-01]
- ASMS ratio (%) n = 1 [1]: 3.6%
- ASMS ratio (%) n = 2 [1]: −1.2%

Substance: 4-[4-[3-[4-(5-Ethoxypyridin-3-yl)pyrazol-1-yl]-5-(trifluoromethyl)benzoyl]piperazin-1-yl]-N-propylbenzamide [B1M031-01]
- ASMS ratio (%) n = 1 [1]: 0.0%
- ASMS ratio (%) n = 2 [1]: −2.4%

Substance: 4-[4-[3-tert-Butyl-5-(3-ethoxyphenyl)benzoyl]piperazin-1-yl]-N-propylbenzamide [B1M062-01]
- ASMS ratio (%) n = 1 [1]: 1.6%
- ASMS ratio (%) n = 2 [1]: −1.7%

Substance: 4-[4-[3-tert-Butyl-5-(5-ethoxypyridin-3-yl)benzoyl]piperazin-1-yl]-N-propylbenzamide [B1M063-01]
- ASMS ratio (%) n = 1 [1]: 0.4%
- ASMS ratio (%) n = 2 [1]: −1.1%

Substance: 4-[4-[4-(3-Ethoxyphenyl)-3-fluorobenzoyl]piperazin-1-yl]-N-propylbenzamide [B1M090-01]
- ASMS ratio (%) n = 1 [2]: 0.0%
- ASMS ratio (%) n = 2 [2]: 0.0%

Substance: 4-[4-[4-(3-Ethoxyphenyl)-3-methylbenzoyl]piperazin-1-yl]-N-propylbenzamide [B1M038-01]
- ASMS ratio (%) n = 1 [1]: 0.0%
- ASMS ratio (%) n = 2 [1]: 1.7%

Substance: 4-[4-[4-(3-Ethoxyphenyl)naphthalene-1-carbonyl]piperazin-1-yl]-N-propylbenzamide [B1M073-01]
- ASMS ratio (%) n = 1 [1]: 0.4%
- ASMS ratio (%) n = 2 [1]: −0.5%

Substance: 4-[4-[4-(3-Ethoxyphenyl)thiophene-2-carbonyl]piperazin-1-yl]-N-propylbenzamide [B1M083-01]
- ASMS ratio (%) n = 1 [2]: 0.0%
- ASMS ratio (%) n = 2 [2]: −0.3%

Substance: 4-[4-[4-(5-Ethoxypyridin-3-yl)-3-fluorobenzoyl]piperazin-1-yl]-N-propylbenzamide [B1M091-01]
- ASMS ratio (%) n = 1 [2]: 0.0%
- ASMS ratio (%) n = 2 [2]: 0.0%

Substance: 4-[4-[4-(5-Ethoxypyridin-3-yl)-3-methylbenzoyl]piperazin-1-yl]-N-propylbenzamide [B1M039-01]
- ASMS ratio (%) n = 1 [1]: 2.3%
- ASMS ratio (%) n = 2 [1]: −0.6%

Substance: 4-[4-[4-(5-Ethoxypyridin-3-yl)naphthalene-1-carbonyl]piperazin-1-yl]-N-propylbenzamide [B1M074-01]
- ASMS ratio (%) n = 1 [1]: −1.6%
- ASMS ratio (%) n = 2 [1]: 0.9%

Substance: 4-[4-[4-(5-Ethoxypyridin-3-yl)thiophene-2-carbonyl]piperazin-1-yl]-N-propylbenzamide [B1M084-01]
- ASMS ratio (%) n = 1 [2]: 0.0%
- ASMS ratio (%) n = 2 [2]: 0.0%

Substance: 4-[4-[5-[2-(3-Ethoxyphenyl)ethynyl]pyridine-3-carbonyl]piperazin-1-yl]-N-propylbenzamide [B1M002-01]
- ASMS ratio (%) n = 1 [1]: −0.7%
- ASMS ratio (%) n = 2 [1]: −1.5%

Substance: 4-[4-[5-[2-(5-Ethoxypyridin-3-yl)ethynyl]pyridine-3-carbonyl]piperazin-1-yl]-N-propylbenzamide [B1M057-01]
- ASMS ratio (%) n = 1 [1]: −0.7%
- ASMS ratio (%) n = 2 [1]: 1.4%

Substance: 4-[4-[[2-(3-Ethoxyphenyl)phenyl]methyl]piperazin-1-yl]-N-propylbenzamide [B1M040-01]
- ASMS ratio (%) n = 1 [1]: −0.3%
- ASMS ratio (%) n = 2 [1]: 0.0%

Substance: 4-[4-[[2-(5-Ethoxypyridin-3-yl)phenyl]methyl]piperazin-1-yl]-N-propylbenzamide [B1M041-01]
- ASMS ratio (%) n = 1 [1]: 0.7%
- ASMS ratio (%) n = 2 [1]: −3.5%

Substance: 4-[4-[[3-(3-Ethoxyphenyl)-5-(trifluoromethoxy)phenyl]methyl]piperazin-1-yl]-N-propylbenzamide [B1M032-01]
- ASMS ratio (%) n = 1 [1]: 0.3%
- ASMS ratio (%) n = 2 [1]: 0.3%

Substance: 4-[4-[[3-(3-Ethoxyphenyl)-5-(trifluoromethyl)phenyl]methyl]piperazin-1-yl]-N-propylbenzamide [B1M026-01]
- ASMS ratio (%) n = 1 [1]: 0.9%
- ASMS ratio (%) n = 2 [1]: 0.9%

Substance: 4-[4-[[3-(5-Ethoxypyridin-3-yl)-5-(trifluoromethoxy)phenyl]methyl]piperazin-1-yl]-N-propylbenzamide [B1M034-01]
- ASMS ratio (%) n = 1 [1]: −0.3%
- ASMS ratio (%) n = 2 [1]: −0.2%

Substance: 4-[4-[[3-(5-Ethoxypyridin-3-yl)-5-(trifluoromethyl)phenyl]methyl]piperazin-1-yl]-N-propylbenzamide [B1M028-01]
- ASMS ratio (%) n = 1 [1]: 0.0%
- ASMS ratio (%) n = 2 [1]: 0.0%

Substance: 4-[4-[[3-(5-Ethoxypyridin-3-yl)-5-propan-2-yloxyphenyl]methyl]piperazin-1-yl]-N-propylbenzamide [B1M017-01]
- ASMS ratio (%) n = 1 [1]: −0.1%
- ASMS ratio (%) n = 2 [1]: 0.3%
